Assays:
[1] = Cytotoxicity against mouse P815B cells […] by MTT assay; assay type: functional; conditions: read-out: LD50 (the source's name)
[2] = target: Tryptophan 2,3-dioxygenase (Mus musculus, UniProt P48776); test: Inhibition of mouse TDO expressed in mouse P815B cells assessed as inhibition of tryptophan catabolism by measuring kynurenine production after 8 hrs by HPLC analysis; assay type: cell-based
Tryptophan 2,3-dioxygenase, sequence (P48776 whole entry): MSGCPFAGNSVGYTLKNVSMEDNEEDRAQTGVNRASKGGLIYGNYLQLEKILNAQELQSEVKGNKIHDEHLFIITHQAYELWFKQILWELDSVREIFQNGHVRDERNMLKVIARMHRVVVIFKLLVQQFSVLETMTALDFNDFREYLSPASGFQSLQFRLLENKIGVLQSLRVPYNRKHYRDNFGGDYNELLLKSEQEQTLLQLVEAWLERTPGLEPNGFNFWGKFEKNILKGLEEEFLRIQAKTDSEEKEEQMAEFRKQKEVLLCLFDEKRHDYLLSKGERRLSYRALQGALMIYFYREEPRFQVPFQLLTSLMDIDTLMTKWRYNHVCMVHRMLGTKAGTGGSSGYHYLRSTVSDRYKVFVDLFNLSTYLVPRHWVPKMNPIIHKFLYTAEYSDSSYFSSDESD

Structure (SMILES)	CC50 [1] [µM]	IC50 [2] [µM]
C(=C\c1c[nH]c2ccccc12)/c1ccncc1	> 100	20
Fc1ccc2[nH]cc(/C=C/c3cccnc3)c2c1	> 80	5
C(=C\c1c[nH]c2ccccc12)/c1ccccn1	> 100	20
N#CSCCc1c[nH]c2ccccc12	> 80	44
C(=C\c1ccc2[nH]ccc2c1)/c1cccnc1	> 80	> 200
C(=C\c1c[nH]c2c1ccc1ccccc12)/c1cccnc1	> 80	> 200
C(=C\c1c[nH]c2ccncc12)/c1cccnc1	> 80	> 200
C(=C\c1c[nH]c2ncccc12)/c1cccnc1	> 80	18
C(=C\c1n[nH]c2ccccc12)/c1cccnc1	> 80	> 200
C(=C\c1c[nH]cn1)/c1cccnc1	> 80	> 200
Fc1ccc(-c2n[nH]cc2/C=C/c2cccnc2)cc1	> 80	> 200
C(=C\c1ccc2ccccc2c1)/c1cccnc1	> 80	> 200
Cn1cc(/C=C/c2cccnc2)c2ccc(F)cc21	> 200	> 200
Cc1[nH]c2ccccc2c1/C=C/c1cccnc1	> 200	> 200
C(=C\c1c(-c2ccccc2)[nH]c2ccccc12)/c1cccnc1	> 200	> 200
Fc1cccc2[nH]cc(/C=C/c3cccnc3)c12	> 80	10
Clc1cccc2[nH]cc(/C=C/c3cccnc3)c12	40	> 40
Brc1cccc2[nH]cc(/C=C/c3cccnc3)c12	> 200	> 200
N#Cc1cccc2[nH]cc(/C=C/c3cccnc3)c12	> 200	> 200
O=[N+]([O-])c1cccc2[nH]cc(/C=C/c3cccnc3)c12	> 200	> 200
COC(=O)c1cccc2[nH]cc(/C=C/c3cccnc3)c12	> 200	> 200
Clc1ccc2[nH]cc(/C=C/c3cccnc3)c2c1	> 80	20
Brc1ccc2[nH]cc(/C=C/c3cccnc3)c2c1	20	40
Cc1ccc2[nH]cc(/C=C/c3cccnc3)c2c1	> 200	> 200

Structure (SMILES)	CC50 [1] [µM]	IC50 [2] [µM]
COc1ccc2[nH]cc(/C=C/c3cccnc3)c2c1	> 80	40
N#Cc1ccc2[nH]cc(/C=C/c3cccnc3)c2c1	> 200	> 200
O=[N+]([O-])c1ccc2[nH]cc(/C=C/c3cccnc3)c2c1	> 200	> 200
COC(=O)c1ccc2[nH]cc(/C=C/c3cccnc3)c2c1	> 200	> 200
O=C(O)c1ccc2[nH]cc(/C=C/c3cccnc3)c2c1	> 200	> 200
Clc1ccc2c(/C=C/c3cccnc3)c[nH]c2c1	> 40	20
Brc1ccc2c(/C=C/c3cccnc3)c[nH]c2c1	> 200	> 200
Cc1ccc2c(/C=C/c3cccnc3)c[nH]c2c1	> 200	> 200
COc1ccc2c(/C=C/c3cccnc3)c[nH]c2c1	> 200	> 200
Oc1ccc2c(/C=C/c3cccnc3)c[nH]c2c1	> 200	> 200
COC(=O)c1ccc2c(/C=C/c3cccnc3)c[nH]c2c1	> 200	> 200
Fc1cccc2c(/C=C/c3cccnc3)c[nH]c12	> 400	50
Clc1cccc2c(/C=C/c3cccnc3)c[nH]c12	> 200	> 200
Brc1cccc2c(/C=C/c3cccnc3)c[nH]c12	20	> 20
Cc1cccc2c(/C=C/c3cccnc3)c[nH]c12	> 200	> 200
COc1cccc2c(/C=C/c3cccnc3)c[nH]c12	> 200	> 200
Fc1ccc2c(/C=C/c3ccccn3)c[nH]c2c1	100	3
C/C=C/c1c[nH]c2ccccc12	> 80	> 80
Fc1ccc2c(/C=C/c3ccccc3)c[nH]c2c1	40	40
Fc1ccc2c(/C=C/c3ccc4ccccc4c3)c[nH]c2c1	> 200	> 200
Fc1cccc(/C=C/c2c[nH]c3cc(F)ccc23)c1	40	10
Fc1ccc2c(/C=C/c3cccc(Cl)c3)c[nH]c2c1	> 200	> 200
Fc1ccc2c(/C=C/c3cccc(Br)c3)c[nH]c2c1	> 200	> 200
COc1cccc(/C=C/c2c[nH]c3cc(F)ccc23)c1	40	10

Structure (SMILES)	CC50 [1] [µM]	IC50 [2] [µM]
N#Cc1cccc(/C=C/c2c[nH]c3cc(F)ccc23)c1	20	1
O=[N+]([O-])c1cccc(/C=C/c2c[nH]c3cc(F)ccc23)c1	40	3
N#C/C=C/c1c[nH]c2ccccc12	> 80	13
N#C/C=C\c1c[nH]c2ccccc12	> 80	> 80
N#C/C=C/c1c[nH]c2cc(F)ccc12	> 80	3
C(=C\c1c[nH]c2ccccc12)/c1nnn[nH]1	> 80	10
COC(=O)/C=C/c1c[nH]c2cc(F)ccc12	40	2
OC/C=C/c1c[nH]c2cc(F)ccc12	100	80
N#C/C(=C\c1c[nH]c2cc(F)ccc12)c1ccccc1	> 80	> 80
CCOC(=O)/C(C#N)=C/c1c[nH]c2cc(F)ccc12	> 80	> 80
N#C/C(=C\c1c[nH]c2cc(F)ccc12)C(=O)O	> 80	> 80
O=C(O)C(=Cc1c[nH]c2cc(F)ccc12)C(=O)O	> 80	> 80
c1cncc(CCc2c[nH]c3ccccc23)c1	> 80	80
C(#Cc1c[nH]c2ccccc12)c1cccnc1	200	6
c1cncc(CCCc2c[nH]c3ccccc23)c1	> 200	> 200
N#CCc1c[nH]c2ccccc12	> 80	> 80
N#CCCc1c[nH]c2ccccc12	> 80	> 80
c1ccc2c(-c3nnn[nH]3)c[nH]c2c1	> 80	> 80
c1ccc2c(Cc3nnn[nH]3)c[nH]c2c1	> 80	> 80
c1ccc2c(CCc3nnn[nH]3)c[nH]c2c1	> 80	> 80
Fc1ccc2c(/C=C/c3ccncc3)c[nH]c2c1	200	3
C(=C\c1c[nH]c2ccccc12)/c1cccnc1	> 80	1
O=C(O)/C=C/c1c[nH]c2ccccc12	> 400	18
N#Cc1c[nH]c2ccccc12	> 80	> 80

Source: ChEMBL document CHEMBL1811872, “Tryptophan 2,3-dioxygenase (TDO) inhibitors. 3-(2-(pyridyl)ethenyl)indoles as potential anticancer immunomodulators” (J Med Chem, 2011)
